Results from patent US11464770B2, “Anticancer pharmaceutical composition” (NATIONAL CANCER CENTER, priority 2016, dated 2022).
Read-outs that look alike come from different tables or passages of the source.

Columns and labels:
[1] = tested on: colorectal cancer cell lines (e.g. DLD-1, HCT 116, SW620, HCT-15, HCT-8, RKO); assay: Cell based assay, cell viability (CellTiter-Glo), colorectal cancer cell lines
Summary of the method: (§1)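 72-hour continuous compound exposure, 0 to 2 μM final, begun one day after seeding; endpoint is ATP-based luminescent viability.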

liver cancer cell lines = assay: Cell based assay, cell viability (CellTiter-Glo), liver cancer cell lines; settings: Homo sapiens, SK-HEP1; SK-HEP-1 cell line
Summary of the method: as §1

[2] = Homo sapiens, DLD-1, 72 hours treatment, read-out: IC50, colorectal cancer cell line DLD-1
[3] = Homo sapiens, HCT 116, 72 hours treatment, read-out: IC50, colorectal cancer cell line HCT 116
[4] = Homo sapiens, HCT-8, 72 hours treatment, read-out: IC50, colorectal cancer cell line HCT-8
[5] = Homo sapiens, HCT-15, 72 hours treatment, read-out: IC50, colorectal cancer cell line HCT-15
[6] = Homo sapiens, HT-29, 72 hours treatment, read-out: IC50, colorectal cancer cell line HT-29
[7] = Homo sapiens, LoVo, 72 hours treatment, read-out: IC50, colorectal cancer cell line LoVo
[8] = Homo sapiens, SW480, 72 hours treatment, read-out: IC50, colorectal cancer cell line SW480
[9] = Homo sapiens, SW-620, SW620, 72 hours treatment, read-out: IC50, colorectal cancer cell line SW620
[10] = RKO, 72 hours treatment, read-out: IC50, colorectal cancer cell line RKO
[11] = Homo sapiens, DLD-1 cells, 72 hours treatment, read-out: IC50, colorectal cancer cell line DLD-1
[12] = Homo sapiens, HCT 116 cells, 72 hours treatment, read-out: IC50, colorectal cancer cell line HCT 116
[13] = Homo sapiens, HCT-8 cells, 72 hours treatment, read-out: IC50, colorectal cancer cell line HCT-8
[14] = Homo sapiens, HCT-15 cells, 72 hours treatment, read-out: IC50, colorectal cancer cell line HCT-15
[15] = Homo sapiens, HT-29 cells, 72 hours treatment, read-out: IC50, colorectal cancer cell line HT-29
[16] = Homo sapiens, LoVo cells, 72 hours treatment, read-out: IC50, colorectal cancer cell line LoVo
[17] = Homo sapiens, RKO cells, 72 hours treatment, read-out: IC50, colorectal cancer cell line RKO
[18] = Homo sapiens, SW480 cells, 72 hours treatment, read-out: IC50, colorectal cancer cell line SW480
[19] = Homo sapiens, SW-620, SW620 cells, 72 hours treatment, read-out: IC50, colorectal cancer cell line SW620

Compound	IC50 [1, 2] [nM]	IC50 [1, 3] [nM]	IC50 [1, 4] [nM]	IC50 [1, 5] [nM]	IC50 [1, 6] [nM]	IC50 [1, 7] [nM]	IC50 [1, 8] [nM]	IC50 [1, 9] [nM]	IC50 [1, 10] [nM]	IC50 (liver cancer cell lines) [nM]	IC50 [1, 11] [nM]	IC50 [1, 12] [nM]	IC50 [1, 13] [nM]	IC50 [1, 14] [nM]	IC50 [1, 15] [nM]	IC50 [1, 16] [nM]	IC50 [1, 17] [nM]	IC50 [1, 18] [nM]	IC50 [1, 19] [nM]
CSc1[nH]c2ccc(F)cc2c(=O)c1C(C)=O [Compound 8, 1-(6-fluoro-4-hydroxy-2-(methylthio)quinolin-3-yl)ethan-1-one]	> 2000	> 2000	> 2000	> 2000	> 10000	> 2000	> 2000	> 2000	> 2000	> 2000	–	–	–	–	–	–	–	–	–
CC(=O)c1c([S+]([O-])Cc2ccc(Cl)nc2)[nH]c2c(Br)ccc(Cl)c2c1=O (stereo not shown) [Compound 104, 3-acetyl-8-bromo-5-chloro-2-(((6-chloropyridin-3-yl)methyl)sulfinyl)quinolin-4(1H)-one]	–	–	–	–	–	–	–	–	–	1500	1240	1320	1290	1490	> 10000	> 2000	1150	1580	1360
CC(=O)c1c(SCc2ccc(F)c(Cl)c2)[nH]c2c(Br)ccc(Cl)c2c1=O [Compound 30, 3-acetyl-8-bromo-5-chloro-2-((3-chloro-4-fluorobenzyl)thio)quinolin-4(1H)-one]	> 2000	> 2000	> 2000	> 2000	> 10000	> 2000	> 2000	> 2000	> 2000	> 2000	–	–	–	–	–	–	–	–	–
CC(=O)c1c([S+]([O-])Cc2cc(C)on2)[nH]c2c(F)ccc(F)c2c1=O (stereo not shown) [Compound 82, 3-acetyl-5,8-difluoro-2-(((5-methylisoxazol-3-yl)methyl)sulfinyl)quinolin-4(1H)-one]	–	–	–	–	–	–	–	–	–	> 2000	> 2000	> 2000	> 2000	> 2000	> 10000	> 2000	> 2000	> 2000	> 2000
CSc1c(C(C)=O)c(=O)c2cc(F)ccc2n1C [Compound 7, 3-acetyl-6-fluoro-1-methyl-2-(methylthio)quinolin-4(1H)-one]	> 2000	> 2000	> 2000	> 2000	> 10000	> 2000	> 2000	> 2000	> 2000	> 2000	–	–	–	–	–	–	–	–	–
CC(=O)c1c([S+](C)[O-])n(Cc2ccc(F)c(Cl)c2)c2c(Br)ccc(Cl)c2c1=O (stereo not shown) [Compound 22, 3-acetyl-8-bromo-5-chloro-1-(3-chloro-4-fluorobenzyl)-2-(methylsulfinyl)quinolin-4(1H)-one]	> 2000	> 2000	> 2000	> 2000	> 10000	> 2000	> 2000	> 2000	> 2000	> 2000	–	–	–	–	–	–	–	–	–
CC(=O)c1c(SCc2ccccc2)[nH]c2c(Br)ccc(Cl)c2c1=O [Compound 3, 3-acetyl-2-(benzylthio)-8-bromo-5-chloroquinolin-4(1H)-one]	> 2000	> 2000	> 2000	> 2000	> 10000	> 2000	> 2000	> 2000	> 2000	> 2000	–	–	–	–	–	–	–	–	–
CC(=O)c1c([S+]([O-])Cc2ccc(NS(C)(=O)=O)cc2)[nH]c2c(Br)ccc(Cl)c2c1=O (stereo not shown) [Compound 103, N-(4-(((3-acetyl-8-bromo-5-chloro-4-oxo-1,4-dihydroquinolin-2-yl)sulfinyl)methyl)phenyl)methane-sulfonamide]	–	–	–	–	–	–	–	–	–	> 2000	> 2000	> 2000	> 2000	> 2000	> 10000	> 2000	> 2000	> 2000	> 2000
Cc1cc(C[S+]([O-])c2[nH]c3c(Cl)ccc(Cl)c3c(=O)c2C(=O)C2CC2)no1 (stereo not shown) [Compound 97, 5,8-dichloro-3-(cyclopropanecarbonyl)-2-(((5-methylisoxazol-3-yl)methyl)sulfinyl)quinolin-4(1H)-one]	–	–	–	–	–	–	–	–	–	1070	1360	1250	1350	1420	> 10000	1520	1270	1690	1100
Cc1cc(C[S+]([O-])c2[nH]c3c(Br)ccc(Cl)c3c(=O)c2C(=O)C2CC2)no1 (stereo not shown) [Compound 96, 8-bromo-5-chloro-3-(cyclopropanecarbonyl)-2-(((5-methylisoxazol-3-yl)methyl)sulfinyl)quinolin-4(1H)-one]	–	–	–	–	–	–	–	–	–	1960	1820	1530	> 2000	1870	> 10000	> 2000	1580	> 2000	1660
CC(=O)c1c(SCC#N)[nH]c2c(Br)ccc(Cl)c2c1=O [Compound 66, 2-((3-acetyl-8-bromo-5-chloro-4-oxo-1,4-dihydroquinolin-2-yl)thio)acetonitrile]	> 2000	> 2000	> 2000	> 2000	> 10000	> 2000	> 2000	> 2000	> 2000	> 2000	–	–	–	–	–	–	–	–	–
COC(=O)c1ccc(C[S+]([O-])c2[nH]c3c(Cl)ccc(Cl)c3c(=O)c2C(C)=O)cc1 (stereo not shown) [Compound 91, methyl 4-(((3-acetyl-5,8-dichloro-4-oxo-1,4-dihydroquinolin-2-yl)sulfinyl)methyl)benzoate]	–	–	–	–	–	–	–	–	–	1720	1820	> 2000	> 2000	> 2000	> 10000	> 2000	1410	> 2000	> 2000
CSc1c(C(C)=O)c(=O)c2c(Cl)ccc(Br)c2n1S(=O)(=O)c1ccc(Cl)cc1 [Compound 37, 3-acetyl-8-bromo-5-chloro-1-((4-chlorophenyl)sulfonyl)-2-(methylthio)quinolin-4(1H)-one]	> 2000	> 2000	> 2000	> 2000	> 10000	> 2000	> 2000	> 2000	> 2000	> 2000	–	–	–	–	–	–	–	–	–
CC(=O)c1c([S+]([O-])Cc2ccc(C(F)(F)F)nc2C)[nH]c2c(Br)ccc(Cl)c2c1=O (stereo not shown) [Compound 102, 3-acetyl-8-bromo-5-chloro-2-(((2-methyl-6-(trifluoromethyl)pyridin-3-yl)methyl)sulfinyl)quinolin-4(1H)-one]	–	–	–	–	–	–	–	–	–	> 2000	1160	1220	1240	1330	> 10000	1940	1190	1600	1220
CC(=O)c1c([S+]([O-])Cc2ccc(C#N)s2)[nH]c2c(Br)ccc(Cl)c2c1=O (stereo not shown) [Compound 98, 5-(((3-acetyl-8-bromo-5-chloro-4-oxo-1,4-dihydroquinolin-2-yl)sulfinyl)methyl)thiophene-2-carbonitrile]	–	–	–	–	–	–	–	–	–	1200	1520	1480	1660	1730	> 10000	> 2000	1340	> 2000	1760
CSc1[nH]c2c(Br)ccc(Cl)c2c(=O)c1C(C)=O [Compound 2, 3-acetyl-8-bromo-5-chloro-2-(methylthio)quinolin-4(1H)-one]	> 2000	> 2000	> 2000	> 2000	> 10000	> 2000	> 2000	> 2000	> 2000	> 2000	–	–	–	–	–	–	–	–	–
CC(=O)c1c([S+]([O-])Cc2cccc(I)c2)[nH]c2c(Br)ccc(Cl)c2c1=O (stereo not shown) [Compound 48, 3-acetyl-8-bromo-5-chloro-2-((3-iodobenzyl)sulfinyl)quinolin-4(1H)-one]	1600	> 2000	> 2000	> 2000	> 10000	> 2000	> 2000	> 2000	> 2000	> 2000	–	–	–	–	–	–	–	–	–
CC(=O)c1c([S+](C)[O-])[nH]c2c(Cl)ccc(Cl)c2c1=O (stereo not shown) [Compound 6, 3-acetyl-5,8-dichloro-2-(methylsulfinyl)quinolin-4(1H)-one]	700	1480	> 2000	1700	> 10000	> 2000	> 2000	1550	1840	1380	–	–	–	–	–	–	–	–	–
CC(=O)c1c([S+]([O-])Cc2ccc(-n3cccn3)nc2)[nH]c2c(Br)ccc(Cl)c2c1=O (stereo not shown) [Compound 99, 2-(((6-(1H-pyrazol-1-yl)pyridin-3-yl)methyl)sulfinyl)-3-acetyl-8-bromo-5-chloroquinolin-4(1H)-one]	–	–	–	–	–	–	–	–	–	1060	870	820	980	970	> 10000	1450	950	1300	920
